Data reported in patent publication US10150766B2, “P2X7 modulators” (Jansssen Pharmaceutica NV, priority 2014, dated 2018).
Like-named read-outs stand apart in the source and are kept apart here.

Tests used:
rat P2X7 = rat P2X7 (Rattus norvegicus (Rat), UniProt Q64663); experiment: P2X7 antagonism in recombinant rat P2X7 cells (column headed P2X7 Rat IC50); type: binding
Experimental: The in vitro affinity of the compounds of the invention for the rat and human P2X7 receptor was determined using a human peripheral blood mononuclear cells (PBMCs), a human whole blood assay, a Ca^2+ flux and radioligand binding assay in recombinant human P2X7 cells and recombinant rat P2X7 cells. […] The data represented in Tables 2 may represent a value from a single determination or when the experiment was run more than once, the data represents the average from between 2-12 runs.
P2X7 Antagonism in Recombinant Human P2X7 Cells or Recombinant Rat P2X7 Cells: […]

P2X7 [1] = target: T1, P2X7 (Homo sapiens (Human), UniProt Q99572); experiment: Radioligand binding ([3H]A-804598) to membranes of human P2X7-1321N1 cells; details: human P2X7-1321N1 membranes, tracer tritiated A-804598, 1 hour at 4° C.
T1 sequence (Q99572 whole entry): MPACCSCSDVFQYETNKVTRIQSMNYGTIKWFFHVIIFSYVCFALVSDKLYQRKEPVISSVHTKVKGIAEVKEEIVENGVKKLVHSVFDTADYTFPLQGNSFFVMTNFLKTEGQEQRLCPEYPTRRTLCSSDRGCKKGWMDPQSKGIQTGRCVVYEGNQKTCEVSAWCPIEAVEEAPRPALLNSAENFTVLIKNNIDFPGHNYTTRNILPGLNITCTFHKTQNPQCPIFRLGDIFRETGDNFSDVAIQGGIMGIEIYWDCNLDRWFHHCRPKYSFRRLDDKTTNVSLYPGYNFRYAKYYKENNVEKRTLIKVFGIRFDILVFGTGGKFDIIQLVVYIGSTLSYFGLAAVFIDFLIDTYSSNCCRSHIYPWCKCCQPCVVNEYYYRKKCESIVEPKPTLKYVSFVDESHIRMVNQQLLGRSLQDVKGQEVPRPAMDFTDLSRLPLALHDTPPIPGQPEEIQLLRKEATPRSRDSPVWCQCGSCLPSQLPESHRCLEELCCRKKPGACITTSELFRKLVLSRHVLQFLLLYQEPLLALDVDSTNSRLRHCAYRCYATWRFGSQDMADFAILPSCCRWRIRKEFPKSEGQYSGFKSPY
Experimental: P2X7 Antagonism in Recombinant Human P2X7 Cells or Recombinant Rat P2X7 Cells:
human or rat P2X7-1321N1 cells were collected and frozen @ −80° C. On the day of the experiment, cell membrane preparations were made according to standard published methods. […] The compound can be prepared as described in the literature. […] The assay was terminated by filtration (GF/B filters pre-soaked with 0.3% PEI) and washed with washing buffer (Tris-HCl 50 mM). The IC50 generated in the binding assay was corrected for tracer concentration and affinity of the tracer to derive at the affinity (Ki) of the test compounds. The data are presented in Table 2 under the headings: P2X7 human Ki (μM) and P2X7 rat Ki (μM). Data are analyzed and graphed on Graphpad Prism 5. For analysis, each concentration point is averaged from triplicate values and the averaged values are plotted on Graphpad Prism.

P2X7 [2] = target: T1, P2X7; experiment: P2X7 antagonism in human whole blood, IL-1β release (LPS + Bz-ATP, ELISA); type: cell-based; details: LPS 30 ng/ml + Bz-ATP 1 mM
Experimental: (§1) P2X7 Antagonism in Human Peripheral Blood Mononuclear Cells (PBMCs) and Human Whole Blood.
(§2) Human blood was collected using a blood donor program. PBMCs were isolated from blood using a Ficoll density gradient technique. Briefly, blood was laid on Ficoll solution and centrifuged at ROOM TEMPERATURE for 20 minutes at 2000 rpm. The buffy layer (between red blood cells and plasma) was carefully collected by aspiration, washed with PBS and centrifuged again at 1500 rpm for 15 minutes. The resulting cell pellet was washed and plated on 96 well-plates for experiments. For the Human Whole Blood experiments, 150 μl of human blood was plated on 96 well-plates. Lipopolysaccharide (LPS) (30 ng/ml) was added to each well and incubated for 1 hour. Test compounds were then added and incubated for 30 minutes. The P2X7 agonist, 2′(3′)-O-(4-benzoylbenzoyl) adenosine 5′-triphosphate (Bz-ATP) was then added at a final concentration of 0.5 mM (PBMC) or 1 mM (blood). Cells were incubated for an additional 1.5 hours. At that point, supernatant was collected and stored for IL-1β assay using manufacturer's protocol for enzyme-linked immunosorbant assay (ELISA). Data was expressed as percent control, where control is defined as the difference in IL-1β release in LPS+Bz-ATP samples and LPS only samples. Data was plotted as response (% control) versus concentration to generate IC50 values. […] Data are analyzed and graphed on Graphpad Prism 5. For analysis, each concentration point is averaged from triplicate values and the averaged values are plotted on Graphpad Prism. The IC50 for each compound is then uploaded into 3DX.

P2X7 [3] = target: T1, P2X7; experiment: P2X7 antagonism in human peripheral blood mononuclear cells (PBMCs), IL-1β release (LPS + Bz-ATP, ELISA); type: cell-based; details: P2X7, 10 μM test compound, LPS 30 ng/ml + Bz-ATP 0.5 mM, read-out: PBMC @10 μM (% control)
Experimental: as §1, §2

[4] = read-out: Human Whole Blood IC50

Chain of rat P2X7 (Q64663 whole entry): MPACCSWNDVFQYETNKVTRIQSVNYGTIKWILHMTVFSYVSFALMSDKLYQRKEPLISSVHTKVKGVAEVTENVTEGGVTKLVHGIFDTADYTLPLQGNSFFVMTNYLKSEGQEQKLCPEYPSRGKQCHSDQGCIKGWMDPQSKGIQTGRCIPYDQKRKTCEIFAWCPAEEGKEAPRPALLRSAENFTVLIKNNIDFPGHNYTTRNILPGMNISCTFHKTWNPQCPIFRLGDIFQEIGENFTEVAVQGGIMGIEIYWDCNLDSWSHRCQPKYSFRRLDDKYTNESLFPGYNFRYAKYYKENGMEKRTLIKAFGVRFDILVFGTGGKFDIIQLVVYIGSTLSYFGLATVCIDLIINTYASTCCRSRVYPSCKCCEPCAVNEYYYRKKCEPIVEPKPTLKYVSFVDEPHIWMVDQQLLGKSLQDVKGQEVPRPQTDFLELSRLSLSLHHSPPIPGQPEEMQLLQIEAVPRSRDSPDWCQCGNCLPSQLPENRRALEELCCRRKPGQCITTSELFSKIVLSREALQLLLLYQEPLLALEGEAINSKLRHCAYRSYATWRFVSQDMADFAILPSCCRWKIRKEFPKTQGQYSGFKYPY

| SMILES | IC50 (rat P2X7) [nM] | Ki (P2X7 [1]) [nM] | IC50 (P2X7 [2]; Human Whole Blood IC50 (μM)) [µM] | remaining activity at 10 µM (P2X7 [3]) [%] | IC50 (P2X7 [2]; [4]) [µM] |
| --- | --- | --- | --- | --- | --- |
| Cc1nc(-c2ccn[nH]2)c2c(n1)[C@H]1CCC[C@@H](C2)N1C(=O)c1cccc(C(F)(F)F)c1C [Example 21, (2-methyl-3-(trifluoromethyl)phenyl)((6S,10R)-2-methyl-4-(1H-pyrazol-5-yl)-5,6,7,8,9,10-hexahydro-6,10-epiminocycloocta[d]pyrimidin-11-yl)methanone] | 33.2 | 31.6 | 0.026 | -26.4 | – |
| Cc1nc(-c2ccn[nH]2)c2c(n1)[C@H]1CCC[C@@H](C2)N1C(=O)c1ccc(F)cc1Cl [Example 22, (2-chloro-4-fluorophenyl)((6S,10R)-2-methyl-4-(1H-pyrazol-5-yl)-5,6,7,8,9,10-hexahydro-6,10-epiminocycloocta[d]pyrimidin-11-yl)methanone] | > 10000 | 316 | – | 26.8 | 0.286 |
| Cc1nc(-c2ccn[nH]2)c2c(n1)[C@H]1CCC[C@@H](C2)N1C(=O)c1ccnc(C(F)(F)F)c1Cl [Example 24, (3-chloro-2-(trifluoromethyl)pyridin-4-yl)((6S,10R)-2-methyl-4-(1H-pyrazol-5-yl)-5,6,7,8,9,10-hexahydro-6,10-epiminocycloocta[d]pyrimidin-11-yl)methanone] | 19.2 | 126 | 0.038 | 2.4 | – |
| Cc1nc(-c2ccn[nH]2)c2c(n1)[C@H]1CCC[C@@H](C2)N1C(=O)c1ccc(F)c(Cl)c1Cl [Example 25, (2,3-dichloro-4-fluorophenyl)((6S,10R)-2-methyl-4-(1H-pyrazol-5-yl)-5,6,7,8,9,10-hexahydro-6,10-epiminocycloocta[d]pyrimidin-11-yl)methanone] | 18.7 | 20 | 0.025 | -10.2 | – |
| Cc1nc(-c2ccn[nH]2)c2c(n1)[C@H]1CCC[C@@H](C2)N1C(=O)c1ccnc(C(F)(F)F)c1F [Example 27, (3-fluoro-2-(trifluoromethyl)pyridin-4-yl)((6S,10R)-2-methyl-4-(1H-pyrazol-5-yl)-5,6,7,8,9,10-hexahydro-6,10-epiminocycloocta[d]pyrimidin-11-yl)methanone] | 132 | 151 | – | -10.2 | 0.172 |
| Cc1nc(-c2ccn[nH]2)c2c(n1)[C@H]1CCC[C@@H](C2)N1C(=O)c1ccc(Cl)cc1F [Example 28, (4-chloro-2-fluorophenyl)((6S,10R)-2-methyl-4-(1H-pyrazol-5-yl)-5,6,7,8,9,10-hexahydro-6,10-epiminocycloocta[d]pyrimidin-11-yl)methanone] | 7940 | 126 | – | -25.1 | 0.423 |
| Cc1nc(-c2ccn[nH]2)c2c(n1)[C@H]1CCC[C@@H](C2)N1C(=O)c1cccc(Cl)c1Cl [Example 29, (2,3-dichlorophenyl)((6S,10R)-2-methyl-4-(1H-pyrazol-5-yl)-5,6,7,8,9,10-hexahydro-6,10-epiminocycloocta[d]pyrimidin-11-yl)methanone] | 206 | 20 | 0.008 | -22.9 | – |
| Cc1nc(-c2ncccn2)c2c(n1)[C@H]1CCC[C@@H](C2)N1C(=O)c1cccc(C(F)(F)F)c1Cl [Example 41, (2-chloro-3-(trifluoromethyl)phenyl)((6S,10R)-2-methyl-4-(pyrimidin-2-yl)-5,6,7,8,9,10-hexahydro-6,10-epiminocycloocta[d]pyrimidin-11-yl)methanone] | 15.8 | 29.5 | 0.021 | -5.6 | – |
| Cc1nc(-c2ncccn2)c2c(n1)[C@H]1CCC[C@@H](C2)N1C(=O)c1ccnc(C(F)(F)F)c1Cl [Example 42, (3-chloro-2-(trifluoromethyl)pyridin-4-yl)((6S,10R)-2-methyl-4-(pyrimidin-2-yl)-5,6,7,8,9,10-hexahydro-6,10-epiminocycloocta[d]pyrimidin-11-yl)methanone] | 157 | 126 | – | -16.1 | 0.107 |
| Cc1nc(-c2ncccn2)c2c(n1)[C@H]1CCC[C@@H](C2)N1C(=O)c1ccc(Cl)c(F)c1Cl [Example 44, (2,4-dichloro-3-fluorophenyl)((6S,10R)-2-methyl-4-(pyrimidin-2-yl)-5,6,7,8,9,10-hexahydro-6,10-epiminocycloocta[d]pyrimidin-11-yl)methanone] | 251 | 50.1 | – | -11.6 | 0.156 |
| Cc1nc(-c2ncccn2)c2c(n1)[C@H]1CCC[C@@H](C2)N1C(=O)c1cccc(Cl)c1Cl [Example 45, (2,3-dichlorophenyl)((6S,10R)-2-methyl-4-(pyrimidin-2-yl)-5,6,7,8,9,10-hexahydro-6,10-epiminocycloocta[d]pyrimidin-11-yl)methanone] | 128 | 25.1 | 0.064 | -14.2 | – |
| Cc1nc(-c2cnccn2)c2c(n1)[C@H]1CCC[C@@H](C2)N1C(=O)c1cccc(C(F)(F)F)c1Cl [Example 46, (2-chloro-3-(trifluoromethyl)phenyl)((6S,10R)-2-methyl-4-(pyrazin-2-yl)-5,6,7,8,9,10-hexahydro-6,10-epiminocycloocta[d]pyrimidin-11-yl)methanone] | 14.1 | 31.6 | 0.088 | -4.2 | – |
| Cc1nc(-c2cnccn2)c2c(n1)[C@H]1CCC[C@@H](C2)N1C(=O)c1ccc(Cl)c(F)c1Cl [Example 47, (2,4-dichloro-3-fluorophenyl)((6S,10R)-2-methyl-4-(pyrazin-2-yl)-5,6,7,8,9,10-hexahydro-6,10-epiminocycloocta[d]pyrimidin-11-yl)methanone] | 245 | 39.8 | 0.04 | -3.4 | – |
| Cc1nc(-c2cnccn2)c2c(n1)[C@H]1CCC[C@@H](C2)N1C(=O)c1cccc(C(F)(F)F)c1C [Example 50, (2-methyl-3-(trifluoromethyl)phenyl)((6S,10R)-2-methyl-4-(pyrazin-2-yl)-5,6,7,8,9,10-hexahydro-6,10-epiminocycloocta[d]pyrimidin-11-yl)methanone] | 67.8 | 93.3 | – | -2.2 | 0.158 |
| Cc1nc(-c2ccc(F)cc2)c2c(n1)[C@H]1CCC[C@@H](C2)N1C(=O)c1cccc(C(F)(F)F)c1Cl [Example 51, (2-chloro-3-(trifluoromethyl)phenyl)((6S,10R)-4-(4-fluorophenyl)-2-methyl-5,6,7,8,9,10-hexahydro-6,10-epiminocycloocta[d]pyrimidin-11-yl)methanone] | 16.6 | 44.7 | 0.043 | -3 | – |
| Cc1nc(-c2ccc(F)cc2)c2c(n1)[C@H]1CCC[C@@H](C2)N1C(=O)c1cccc(C(F)(F)F)c1C [Example 53, ((6S,10R)-4-(4-fluorophenyl)-2-methyl-5,6,7,8,9,10-hexahydro-6,10-epiminocycloocta[d]pyrimidin-11-yl)(2-methyl-3-(trifluoromethyl)phenyl)methanone] | 191 | 31.6 | – | 0 | 0.131 |
